Columns and labels:
[1] = tested on: HCT-116; test: Antiproliferative activity against human HCT116 cells overexpressing FAK assessed as reduction in cell viability after 72 hrs by MTS assay; conditions: HCT-116, 72 h
[2] = tested on: PC-3; test: Antiproliferative activity against human PC3 cells overexpressing FAK assessed as reduction in cell viability after 72 hrs by MTS assay; conditions: PC-3, 72 h
[3] = tested on: U-87 MG; test: Antiproliferative activity against human U87MG cells overexpressing FAK assessed as reduction in cell viability after 72 hrs by MTS assay
[4] = tested on: MCF7; test: Antiproliferative activity against human MCF7 cells overexpressing FAK assessed as reduction in cell viability after 72 hrs by MTS assay; conditions: MCF7, 72 h
[5] = tested on: MCF-10A; test: Cytotoxicity against human MCF10A cells assessed as reduction in cell viability after 72 hrs by MTS assay

| IC50 [1] | IC50 [2] | IC50 [3] | IC50 [4] | SMILES | IC50 [5] |
| --- | --- | --- | --- | --- | --- |
| 30 nM | 520 nM | 920 nM | 400 nM | CNC(=O)c1ccccc1Nc1nc(Nc2ccc(C(=O)N3CCN(C(=S)SCCS(C)(=O)=O)CC3)cc2)ncc1Cl |  |
| 290 to 460 nM | 1210 to 1680 nM | 1580 to 1660 nM | 450 to 560 nM | CNC(=O)c1ccccc1Nc1nc(Nc2ccc(N3CCOCC3)cc2OC)ncc1Cl | 8760 nM |
| 30 nM | 170 nM | 1730 nM | 7170 nM | CNC(=O)c1ccccc1Nc1nc(Nc2ccc(C(=O)N3CCN(C(=S)SCCC#N)CC3)cc2)ncc1Cl |  |
| 90 nM | 310 nM | > 20000 nM | 540 nM | CNC(=O)c1ccccc1Nc1nc(Nc2ccc(C(=O)N3CCN(C(=S)SCC4CCOCC4)CC3)cc2)ncc1Cl |  |
| 10 nM | 270 nM | 280 nM | 80 nM | CNC(=O)c1ccccc1Nc1nc(Nc2ccc(C(=O)N3CCN(C(=S)SCCN(C)C)CC3)cc2)ncc1C | 1080 nM |
| 160 nM | 920 nM | 1610 nM | 360 nM | CNC(=O)c1ccccc1Nc1nc(Nc2ccc(C(=O)N3CCN(C(=S)SCCN(C)C)CC3)cc2)ncc1OC | 2430 nM |
| 30 nM | 360 nM | 690 nM | 160 nM | CNC(=O)c1ccccc1Nc1nc(Nc2ccc(C(=O)N3CCN(C(=S)SCCN(C)C)CC3)cc2)ncc1F | 1750 nM |
| 260 nM | 1990 nM | 1310 nM | 2290 nM | CNC(=O)c1ccccc1Nc1nc(Nc2ccc(C(=O)N3CCN(C(=S)SCCC(=O)OC)CC3)cc2)ncc1Cl |  |
| 50 nM | 17000 nM | 3360 nM | > 20000 nM | CNC(=O)c1ccccc1Nc1nc(Nc2ccc(C(=O)N3CCN(C(=S)SCc4ccccc4)CC3)cc2)ncc1Cl |  |
| 30 nM | 200 nM | 870 nM | 110 nM | CNC(=O)c1ccccc1Nc1nc(Nc2ccc(C(=O)N3CCN(C(=S)SCC(C)O)CC3)cc2)ncc1Cl (stereo not given) |  |
| 3520 nM | 230 nM | 470 nM | 330 nM | CNC(=O)c1ccccc1Nc1nc(Nc2ccc(C(=O)N3CCN(C(=S)SCCN4CCOCC4)CC3)cc2)ncc1Cl |  |
| 10 nM | 220 nM | 200 nM | 160 nM | CNC(=O)c1ccccc1Nc1nc(Nc2ccc(C(=O)N3CCN(C(=S)SCCN4CCCC4)CC3)cc2)ncc1Cl |  |
| 4 nM | 90 nM | 200 to 360 nM | 80 to 90 nM | CNC(=O)c1ccccc1Nc1nc(Nc2ccc(C(=O)N3CCN(C(=S)SCCN(C)C)CC3)cc2)ncc1Cl | 720 nM |
| 60 nM | 470 nM | 1160 nM | 520 nM | CCOC(=O)C(=O)CSC(=S)N1CCN(C(=O)c2ccc(Nc3ncc(Cl)c(Nc4ccccc4C(=O)NC)n3)cc2)CC1 |  |
| 3780 nM | > 20000 nM | > 20000 nM | 11700 nM | CNC(=O)c1ccccc1Nc1nc(Nc2ccc(C(=O)N3CCN(C(=S)SCCc4ccccc4)CC3)cc2)ncc1Cl |  |
| 10 nM | 380 nM | 280 nM | 270 nM | CNC(=O)c1ccccc1Nc1nc(Nc2ccc(C(=O)N3CCN(C(=S)SCCN4CCCCC4)CC3)cc2)ncc1Cl |  |
| 20 nM | 240 nM | 710 nM | 110 nM | CNC(=O)c1ccccc1Nc1nc(Nc2ccc(C(=O)N3CCN(C(=S)SCCO)CC3)cc2)ncc1Cl |  |
| 440 nM | 3010 nM | 2800 nM | 2010 nM | CNC(=O)c1ccccc1Nc1ccnc(Nc2ccc(C(=O)N3CCN(C(=S)SCCN(C)C)CC3)cc2)n1 | 6190 nM |
| 60 nM | 360 nM | 1700 nM | 770 nM | CNC(=O)c1ccccc1Nc1nc(Nc2ccc(C(=O)N3CCN(C(=S)SCc4ccncc4)CC3)cc2)ncc1Cl |  |
| 40 nM | 460 nM | 610 nM | 300 nM | CNC(=O)c1ccccc1Nc1nc(Nc2ccc(C(=O)N3CCN(C(=S)SCCOC)CC3)cc2)ncc1Cl |  |
| 2650 to 3020 nM | > 20000 nM | 10200 to 10300 nM | 8970 to 9760 nM | CNC(=O)c1ccc(Nc2ncc(C(F)(F)F)c(NCc3nccnc3N(C)S(C)(=O)=O)n2)cc1 [DEFACTINIB] | 18400 nM |
| 10 nM | 260 nM | 620 nM | 220 nM | CNC(=O)c1ccccc1Nc1nc(Nc2ccc(C(=O)N3CCN(C(=S)SCCN4CCN(C)CC4)CC3)cc2)ncc1Cl |  |
| 4690 nM | 3530 nM | 7540 nM | 9930 nM | CCOC(=O)CSC(=S)N1CCN(C(=O)c2ccc(Nc3ncc(Cl)c(Nc4ccccc4C(=O)NC)n3)cc2)CC1 |  |
| 30 nM | 450 nM | 1530 nM | 390 nM | CNC(=O)c1ccccc1Nc1nc(Nc2ccc(C(=O)N3CCN(C(=S)SCc4cccnc4)CC3)cc2)ncc1Cl |  |
| 60 nM | 400 nM | 2530 nM | 390 nM | CNC(=O)c1ccccc1Nc1nc(Nc2ccc(C(=O)N3CCN(C(=S)SCc4ccccn4)CC3)cc2)ncc1Cl |  |
| 50 nM | 690 nM | 2740 nM | 210 nM | CNC(=O)c1ccccc1Nc1nc(Nc2ccc(C(=O)N3CCN(C(=S)SCCC4OCCO4)CC3)cc2)ncc1Cl |  |
| 110 nM | 1020 nM | > 20000 nM | 1380 nM | C=CCSC(=S)N1CCN(C(=O)c2ccc(Nc3ncc(Cl)c(Nc4ccccc4C(=O)NC)n3)cc2)CC1 |  |
